# Laboratory results from ChEMBL document CHEMBL5550152, “Design, synthesis and evaluation of novel prostate-specific membrane antigen-targeted aryl [18F]fluorosulfate PET tracers” (Bioorg Med Chem, 2024).
# Assays:
# [1] = Drug uptake in human 22Rv1 cells at 3.7 10^-2MBq pretreated with 2-PMPA for 30 mins followed by compound addition and measured after 4 hr relative to control; type: ADME, cell-based; conditions: cwr22r
# [2] = Drug uptake in human 22Rv1 cells at 3.7 10^-2MBq measured after 4 hrs relative to control; type: ADME, cell-based; conditions: cwr22r
# [3] = Stability in mouse plasma measured after 4 hrs by radio-HPLC analysis; type: ADME, cell-free
# [4] = Drug uptake in mouse tumor xenografted with human 22Rv1 cells at 7.4 MBq, iv measured after 2 hrs by PET imaging analysis relative to control; type: ADME, organism-based, Neoplasm, CWR22R; conditions: in vivo
# [5] = Drug uptake in human 22Rv1 cells at 3.7 10^-2MBq measured after 1 hr; type: ADME, cell-based; conditions: cwr22r
# [6] = Stability of the compound in PBS buffer measured after 4 hrs by radio-HPLC analysis; type: physicochemical
# [7] = Drug uptake in human 22Rv1 cells at 3.7 10^-2MBq pretreated with 2-PMPA for 30 mins followed by compound addition and measured after 1 hr; type: ADME, cell-based; conditions: cwr22r
smiles,measurement,setting,value
O=C(O)CC[C@H](NC(=O)N[C@@H](CCCCNC(=O)[C@H](Cc1ccc2ccccc2c1)NC(=O)c1ccc(CNC(=O)[C@H](CCC(=O)O)NC(=O)[C@H](CCC(=O)O)NC(=O)c2ccc(OS(=O)(=O)[18F])cc2)cc1)C(=O)O)C(=O)O,Drug uptake,[1],0.14%
same,Drug uptake,[2],0.65%
same,Stability,[3],Stable
same,Drug uptake,[4],2.68 % ID/g
same,Drug uptake,[5],Not Active
same,Stability,[6],Stable
same,Drug uptake,[7],Not Active
